# From patent US20040127403A1, “Methods for treating and preventing Gram-positive bacteremias” (priority 2002, published 2004)
# Where two headings read alike, the source gives them in different places.
# Key:
# Assay in all cases: MIC, NCCLS broth microdilution
# Assay type in all cases: cell-based
# E. faecium A5959 Line-R = conditions: Enterococcus faecium, A5959LINER
# Procedure: (§1) The efficacy of ramoplanin was tested against recently isolated VRE that are resistant to linezolid and quinupristin/dalfopristin. The culture media containing ramoplanin was supplemented with 0.02% bovine serum albumin (BSA) to prevent ramoplanin binding to the plastic. MIC values were determined in both cation-adjusted Mueller-Hinton broth (CAMHB) and trypticase soy broth (TSB) by the National Committee for Clinical Laboratory Standards (NCCLS) broth microdilution method. Macromolecular biosynthesis experiments were done by following the incorporation of carbon-14-labeled N-acetylglucosamine, acetic acid, amino acids, uridine, and thymidine into peptidoglycan, fatty acid, protein, RNA and DNA, respectively.
# E. faecium A6350 Line-R = conditions: Enterococcus faecium, A6350LINER, read-out: MIC
# Procedure: as §1
# E. faecium A-5960 Line-R = conditions: Enterococcus faecium, A5960LINER
# Procedure: as §1
# E. faecium UA392 = conditions: Enterococcus faecium, UA392, E. faecium UA392, read-out: MIC
# Procedure: as §1
# S. aureus ATCC27660 MSSA = conditions: Staphylococcus aureus, read-out: MIC
# Procedure: as §1
# E. gallinarum UA604 = conditions: Enterococcus gallinarum, GALLINARUM, read-out: MIC
# Procedure: as §1
# E. faecium A6343 Line-R = conditions: Enterococcus faecium, A6343LINER, read-out: MIC
# Procedure: as §1
# S. epidermidis ATCC14990 = conditions: Staphylococcus epidermidis, ATCC14990, S. epidermidis ATCC14990, read-out: MIC
# Procedure: as §1
# E. faecium A2735 Syn-R = conditions: Enterococcus faecium, A2735SYNR, read-out: MIC
# Procedure: as §1
# E. faecium A6349 Line-R = conditions: Enterococcus faecium, A6349LINER, read-out: MIC
# Procedure: as §1
# S. aureus ATCC27659 MSSA = conditions: Staphylococcus aureus, read-out: MIC
# Procedure: as §1
# [1] = system: S. aureus ATCC700699 MRSA/VISA; conditions: Staphylococcus aureus, S. aureus ATCC700699 MRSA/VISA, read-out: MIC
# Procedure: as §1
# S. epidermidis ATCC12228 = conditions: Staphylococcus epidermidis, ATCC12228, S. epidermidis ATCC12228, read-out: MIC
# Procedure: as §1
# E. faecalis ATCC29212 = system: E. faecalis ATCC29212
# Procedure: as §1
# E. faecium A6345 Line-R = conditions: Enterococcus faecium, A6345LINER, E. faecium A6345 Line-R, read-out: MIC
# Procedure: as §1
# S. aureus ATCC19636 MSSA = conditions: Staphylococcus aureus, read-out: MIC
# Procedure: as §1
# S. aureus ATCC12600 MRSA = conditions: Staphylococcus aureus, read-out: MIC
# Procedure: as §1
# E. faecium A4192 Syn-R = conditions: Enterococcus faecium, A4192SYNR, read-out: MIC
# Procedure: as §1
# S. aureus ATCC43300 MRSA = conditions: Staphylococcus aureus, ATCC 43300 / MRSA / VISA, S. aureus ATCC43300 MRSA/VISA, read-out: MIC
# Procedure: as §1
# E. faecium 1836 = conditions: Enterococcus faecium, 1836, E. faecium 1836, read-out: MIC
# Procedure: as §1
# E. faecalis A7789 Line-R = conditions: Enterococcus faecalis, A7789LINER
# Procedure: as §1
# E. faecium ATCC700221 = conditions: Enterococcus faecium, ATCC700221, E. faecium ATCC700221, read-out: MIC
# Procedure: as §1
# E. faecalis ATCC51299 = conditions: Enterococcus faecalis, ATCC51299, E. faecalis ATCC51299, read-out: MIC
# Procedure: as §1
smiles,measurement,setting,value
"COc1cccc(OC)c1C(=O)N[C@@H]1C(=O)N2[C@@H]1SC(C)(C)[C@@H]2C(=O)O [Meth., methicillin]",MIC,"E. faecium A5959 Line-R; Table 6, 1st",> 16 µg/mL
same,MIC,"E. faecium A5959 Line-R; Table 6, 2nd",> 64 µg/mL
same,MIC,"E. faecium A6350 Line-R; Table 6, 1st",> 16 µg/mL
same,MIC,"E. faecium A6350 Line-R; Table 6, 2nd",64 µg/mL
same,MIC,"E. faecium A-5960 Line-R; Table 6, 1st",> 16 µg/mL
same,MIC,"E. faecium A-5960 Line-R; Table 6, 2nd",> 64 µg/mL
same,MIC,"E. faecium UA392; Table 6, 1st",> 16 µg/mL
same,MIC,"E. faecium UA392; Table 6, 2nd",> 64 µg/mL
same,MIC,"S. aureus ATCC27660 MSSA; Table 6, 1st",2 µg/mL
same,MIC,"S. aureus ATCC27660 MSSA; Table 6, 2nd",4 µg/mL
same,MIC,"E. gallinarum UA604; Table 6, 1st",> 16 µg/mL
same,MIC,"E. gallinarum UA604; Table 6, 2nd",> 64 µg/mL
same,MIC,"E. faecium A6343 Line-R; Table 6, 1st",> 16 µg/mL
same,MIC,"E. faecium A6343 Line-R; Table 6, 2nd",64 µg/mL
same,MIC,"S. epidermidis ATCC14990; Table 6, 1st",1 µg/mL
same,MIC,"S. epidermidis ATCC14990; Table 6, 2nd",1 µg/mL
same,MIC,"E. faecium A2735 Syn-R; Table 6, 1st",> 16 µg/mL
same,MIC,"E. faecium A2735 Syn-R; Table 6, 2nd",> 64 µg/mL
same,MIC,"E. faecium A6349 Line-R; Table 6, 1st",> 16 µg/mL
same,MIC,"E. faecium A6349 Line-R; Table 6, 2nd",> 64 µg/mL
same,MIC,"S. aureus ATCC27659 MSSA; Table 6, 1st",2 µg/mL
same,MIC,"S. aureus ATCC27659 MSSA; Table 6, 2nd",2 µg/mL
same,MIC,"[1]; Table 6, 1st",> 16 µg/mL
same,MIC,"[1]; Table 6, 2nd",> 64 µg/mL
same,MIC,"S. epidermidis ATCC12228; Table 6, 1st",1 µg/mL
same,MIC,"S. epidermidis ATCC12228; Table 6, 2nd",2 µg/mL
same,MIC,"E. faecalis ATCC29212; E. faecalis ATCC29212, Table 6, 1st",16 µg/mL
same,MIC,"E. faecalis ATCC29212; Enterococcus faecalis, ATCC29212, E. faecalis ATCC29212, Table 6, 1st, read-out: MIC",> 16 µg/mL
same,MIC,"E. faecalis ATCC29212; Enterococcus faecalis, ATCC29212, E. faecalis ATCC29212, Table 6, 2nd, read-out: MIC",32 µg/mL
same,MIC,"E. faecium A6345 Line-R; Table 6, 1st",> 16 µg/mL
same,MIC,"E. faecium A6345 Line-R; Table 6, 2nd",> 64 µg/mL
same,MIC,"S. aureus ATCC19636 MSSA; Table 6, 1st",1 µg/mL
same,MIC,"S. aureus ATCC19636 MSSA; Table 6, 2nd",2 µg/mL
same,MIC,"S. aureus ATCC12600 MRSA; Table 6, 1st",2 µg/mL
same,MIC,"S. aureus ATCC12600 MRSA; Table 6, 2nd",> 64 µg/mL
same,MIC,"E. faecium A4192 Syn-R; Table 6, 1st",> 16 µg/mL
same,MIC,"E. faecium A4192 Syn-R; Table 6, 2nd",> 64 µg/mL
same,MIC,"S. aureus ATCC43300 MRSA; Table 6, 1st",8 µg/mL
same,MIC,"S. aureus ATCC43300 MRSA; Table 6, 2nd",8 µg/mL
same,MIC,"E. faecium 1836; Table 6, 1st",> 16 µg/mL
same,MIC,"E. faecium 1836; Table 6, 2nd",> 64 µg/mL
same,MIC,"E. faecalis A7789 Line-R; Table 6, 1st",> 16 µg/mL
same,MIC,"E. faecalis A7789 Line-R; Table 6, 2nd",32 µg/mL
same,MIC,"E. faecium ATCC700221; Table 6, 1st",> 16 µg/mL
same,MIC,"E. faecium ATCC700221; Table 6, 2nd",> 64 µg/mL
same,MIC,"E. faecalis ATCC51299; Table 6, 1st",> 16 µg/mL
same,MIC,"E. faecalis ATCC51299; Table 6, 2nd",32 µg/mL
